Data on 26 compounds can be found in US20200016159A1, “N3-CYCLICALLY SUBSTITUTED THIENOURACILS AND USE THEREOF” (Bayer Aktiengesellschaft, priority 2016, published 2020).

The term IC50 denotes the concentration at which inhibition is half-maximal.

Each structure is given as a SMILES string.

The test deals with T1, human adenosine A2b receptor (Homo sapiens, UniProt P29275).
T1 sequence (P29275 1-332): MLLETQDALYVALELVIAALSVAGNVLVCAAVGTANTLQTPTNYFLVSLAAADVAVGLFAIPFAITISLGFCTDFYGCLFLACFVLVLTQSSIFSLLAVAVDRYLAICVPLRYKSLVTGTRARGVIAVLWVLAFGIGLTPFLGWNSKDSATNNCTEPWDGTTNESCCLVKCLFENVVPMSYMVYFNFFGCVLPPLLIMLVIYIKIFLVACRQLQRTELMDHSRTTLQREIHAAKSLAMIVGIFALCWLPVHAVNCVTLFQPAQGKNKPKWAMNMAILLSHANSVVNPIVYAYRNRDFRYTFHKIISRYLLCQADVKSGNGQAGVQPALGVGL
Description: Cellular in vitro reporter gene test for A2b receptor activity (antagonism of NECA). The note with it: recombinant CHO-K1 cells, CRE-luciferase reporter, co-incubation with EC50 concentration of NECA, 3 hours. In kind it is cell-based. The arrangement: expressed in transfected cells; host or cells: CHO-K1 (Chinese hamster ovary) with CRE-luciferase reporter. The method in brief:
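CHO-K1 cells expressing recombinant human A2b receptor plus a CRE-driven firefly luciferase reporter. Compounds co-incubated with NECA at its same-day EC50 concentration; luminescence read 3 hours after NECA addition. IC50 values, sometimes means of several determinations rounded to two significant figures.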
For orientation: A reporter such as luciferase makes a cellular process visible.

On to `COCCn1c(=O)n(C2CC(C)(C)C2)c(=O)c2c(C)c(Cn3nc[nH]c3=O)sc21` [Example 173, 3-(3,3-Dimethylcyclobutyl)-1-(2-methoxyethyl)-5-methyl-6-[(5-oxo-4,5-dihydro-1H-1,2,4-triazol-1-yl)methyl]thieno[2,3-d]pyrimidine-2,4(1H,3H)-dione], for which the half-maximal inhibitory concentration (IC50) turned out to be 83 nM.

As to `Cc1c(CN2CCNC2=O)sc2c1c(=O)n(C1CC3(CCC3)C1)c(=O)n2CCC(F)(F)F` [Example 174, 5-Methyl-6-[(2-oxoimidazolidin-1-yl)methyl]-3-(spiro[3.3]hept-2-yl)-1-(3,3,3-trifluoropropyl)thieno[2,3-d]pyrimidine-2,4(1H,3H)-dione], the IC50 turned out to be 2.8 nM.

For `Cc1c(CN2CCNC2=NC#N)sc2c1c(=O)n(C1CC3(CCC3)C1)c(=O)n2CCC(F)(F)F` [Example 175, [1-{[5-Methyl-2,4-dioxo-3-(spiro[3.3]hept-2-yl)-1-(3,3,3-trifluoropropyl)-1,2,3,4-tetrahydrothieno[2,3-d]pyrimidin-6-yl]methyl}imidazolidin-2-ylidene]cyanamide], the IC50 was 18 nM.

On to `COC(=O)N=C1NCCN1Cc1sc2c(c1C)c(=O)n(C1CC3(CCC3)C1)c(=O)n2CCC(F)(F)F` [Example 176, Methyl [1-{[5-methyl-2,4-dioxo-3-(spiro[3.3]hept-2-yl)-1-(3,3,3-trifluoropropyl)-1,2,3,4-tetrahydrothieno[2,3-d]pyrimidin-6-yl]methyl}imidazolidin-2-ylidene]carbamate], for which the IC50 is 4 nM.

As to `Cc1c(CN2CCNC(=O)C2=O)sc2c1c(=O)n(C1CC3(CCC3)C1)c(=O)n2CCC(F)(F)F` [Example 177, 6-[(2,3-Dioxopiperazin-1-yl)methyl]-5-methyl-3-(spiro[3.3]hept-2-yl)-1-(3,3,3-trifluoropropyl)thieno[2,3-d]pyrimidine-2,4(1H,3H)-dione], the IC50 worked out at 17 nM.

Regarding `Cc1c(Cn2nc[nH]c2=O)sc2c1c(=O)n(C1CC3(CCC3)C1)c(=O)n2CCC(F)(F)F` [Example 178, 5-Methyl-6-[(5-oxo-4,5-dihydro-1H-1,2,4-triazol-1-yl)methyl]-3-(spiro[3.3]hept-2-yl)-1-(3,3,3-trifluoropropyl)thieno[2,3-d]pyrimidine-2,4(1H,3H)-dione], the 50% inhibitory concentration (IC50) stood at 26 nM.

In the case of `COCCn1c(=O)n(C2CC3(CCC3)C2)c(=O)c2c(C)c(CN3CCNC3=O)sc21` [Example 179, 1-(2-Methoxyethyl)-5-methyl-6-[(2-oxoimidazolidin-1-yl)methyl]-3-(spiro[3.3]hept-2-yl)thieno[2,3-d]pyrimidine-2,4(1H,3H)-dione], the IC50 was 10 nM.

Turning to `COCCn1c(=O)n(C2CC3(CCC3)C2)c(=O)c2c(C)c(CN3CCNC3=NC#N)sc21` [Example 180, [1-{[1-(2-Methoxyethyl)-5-methyl-2,4-dioxo-3-(spiro[3.3]hept-2-yl)-1,2,3,4-tetrahydrothieno[2,3-d]pyrimidin-6-yl]methyl}imidazolidin-2-ylidene]cyanamide], the IC50 was 13 nM.

For `COCCn1c(=O)n(C2CC3(CCC3)C2)c(=O)c2c(C)c(CN3CCNC3=NC(=O)OC)sc21` [Example 181, Methyl [1-{[1-(2-methoxyethyl)-5-methyl-2,4-dioxo-3-(spiro[3.3]hept-2-yl)-1,2,3,4-tetrahydrothieno[2,3-d]pyrimidin-6-yl]methyl}imidazolidin-2-ylidene]carbamate], the IC50 was found to be 6.7 nM.

`COCCn1c(=O)n(C2CC3(CCC3)C2)c(=O)c2c(C)c(CN3CCNC(=O)C3=O)sc21` [Example 182, 6-[(2,3-Dioxopiperazin-1-yl)methyl]-1-(2-methoxyethyl)-5-methyl-3-(spiro[3.3]hept-2-yl)thieno[2,3-d]pyrimidine-2,4(1H,3H)-dione]: the concentration for half-maximal inhibition (IC50) worked out at 27 nM.

Take `COCCn1c(=O)n(C2CC3(CCC3)C2)c(=O)c2c(C)c(Cn3nc[nH]c3=O)sc21` [Example 183, 1-(2-Methoxyethyl)-5-methyl-6-[(5-oxo-4,5-dihydro-1H-1,2,4-triazol-1-yl)methyl]-3-(spiro[3.3]hept-2-yl)thieno[2,3-d]pyrimidine-2,4(1H,3H)-dione]: the half-inhibitory concentration (IC50) is 70 nM.

For `Cc1c(CN2CCNC2=O)sc2c1c(=O)n(C1CCCC1)c(=O)n2CCC(F)(F)F` [Example 184, 3-Cyclopentyl-5-methyl-6-[(2-oxoimidazolidin-1-yl)methyl]-1-(3,3,3-trifluoropropyl)thieno[2,3-d]pyrimidine-2,4(1H,3H)-dione], the IC50 was found to be 6.9 nM.

For `Cc1c(CN2CCNC2=NC#N)sc2c1c(=O)n(C1CCCC1)c(=O)n2CCC(F)(F)F` [Example 185, [1-{[3-Cyclopentyl-5-methyl-2,4-dioxo-1-(3,3,3-trifluoropropyl)-1,2,3,4-tetrahydrothieno[2,3-d]pyrimidin-6-yl]methyl}imidazolidin-2-ylidene]cyanamide], the IC50 was 16 nM.

As to `COC(=O)N=C1NCCN1Cc1sc2c(c1C)c(=O)n(C1CCCC1)c(=O)n2CCC(F)(F)F` [Example 186, Methyl [1-{[3-cyclopentyl-5-methyl-2,4-dioxo-1-(3,3,3-trifluoropropyl)-1,2,3,4-tetrahydrothieno[2,3-d]pyrimidin-6-yl]methyl}imidazolidin-2-ylidene]carbamate], the IC50 came out at 7.9 nM.

As to `Cc1c(CN2CCNC(=O)C2=O)sc2c1c(=O)n(C1CCCC1)c(=O)n2CCC(F)(F)F` [Example 187, 3-Cyclopentyl-6-[(2,3-dioxopiperazin-1-yl)methyl]-5-methyl-1-(3,3,3-trifluoropropyl)thieno[2,3-d]pyrimidine-2,4(1H,3H)-dione], the IC50 stood at 19 nM.

Take `Cc1c(Cn2nc[nH]c2=O)sc2c1c(=O)n(C1CCCC1)c(=O)n2CCC(F)(F)F` [Example 188, 3-Cyclopentyl-5-methyl-6-[(5-oxo-4,5-dihydro-1H-1,2,4-triazol-1-yl)methyl]-1-(3,3,3-trifluoropropyl)thieno[2,3-d]pyrimidine-2,4(1H,3H)-dione]: the IC50 came out at 100 nM.

Take `COCCn1c(=O)n(C2CCCC2)c(=O)c2c(C)c(CN3CCNC3=O)sc21` [Example 189, 3-Cyclopentyl-1-(2-methoxyethyl)-5-methyl-6-[(2-oxoimidazolidin-1-yl)methyl]thieno[2,3-d]pyrimidine-2,4(1H,3H)-dione]: the 50% inhibitory concentration (IC50) turned out to be 40 nM.

With `COCCn1c(=O)n(C2CCCC2)c(=O)c2c(C)c(CN3CCNC3=NC#N)sc21` [Example 190, [1-{[3-Cyclopentyl-1-(2-methoxyethyl)-5-methyl-2,4-dioxo-1,2,3,4-tetrahydrothieno[2,3-d]pyrimidin-6-yl]methyl}imidazolidin-2-ylidene]cyanamide], the half-maximal inhibitory concentration (IC50) was found to be 28 nM.

For `COCCn1c(=O)n(C2CCCC2)c(=O)c2c(C)c(CN3CCNC3=NC(=O)OC)sc21` [Example 191, Methyl [1-{[3-cyclopentyl-1-(2-methoxyethyl)-5-methyl-2,4-dioxo-1,2,3,4-tetrahydrothieno[2,3-d]pyrimidin-6-yl]methyl}imidazolidin-2-ylidene]carbamate], the IC50 came out at 18 nM.

As for `COCCn1c(=O)n(C2CCCC2)c(=O)c2c(C)c(CN3CCNC(=O)C3=O)sc21` [Example 192, 3-Cyclopentyl-6-[(2,3-dioxopiperazin-1-yl)methyl]-1-(2-methoxyethyl)-5-methylthieno[2,3-d]pyrimidine-2,4(1H,3H)-dione], the IC50 was 140 nM.

In the case of `COCCn1c(=O)n(C2CCCC2)c(=O)c2c(C)c(Cn3nc[nH]c3=O)sc21` [Example 193, 3-Cyclopentyl-1-(2-methoxyethyl)-5-methyl-6-[(5-oxo-4,5-dihydro-1H-1,2,4-triazol-1-yl)methyl]thieno[2,3-d]pyrimidine-2,4(1H,3H)-dione], the IC50 worked out at 230 nM.

Take `CCn1c(=O)n(C2CC2)c(=O)c2c(C)c(Cn3nc[nH]c3=O)sc21` [Example 194, 3-Cyclopropyl-1-ethyl-5-methyl-6-[(5-oxo-4,5-dihydro-1H-1,2,4-triazol-1-yl)methyl]thieno[2,3-d]pyrimidine-2,4(1H,3H)-dione]: the IC50 came to 180 nM.

Consider `CCCn1c(=O)n(C2CC2)c(=O)c2c(C)c(Cn3nc[nH]c3=O)sc21` [Example 195, 3-Cyclopropyl-5-methyl-6-[(5-oxo-4,5-dihydro-1H-1,2,4-triazol-1-yl)methyl]-1-propylthieno[2,3-d]pyrimidine-2,4(1H,3H)-dione], for which the IC50 was found to be 120 nM.

Take `Cc1c(Cn2nc[nH]c2=O)sc2c1c(=O)n(C1CC1)c(=O)n2CCF` [Example 196, 3-Cyclopropyl-1-(2-fluoroethyl)-5-methyl-6-[(5-oxo-4,5-dihydro-1H-1,2,4-triazol-1-yl)methyl]thieno[2,3-d]pyrimidine-2,4(1H,3H)-dione]: the IC50 came to 210 nM.

For `Cc1c(Cn2nc[nH]c2=O)sc2c1c(=O)n(C1CC1)c(=O)n2CCCF` [Example 197, 3-Cyclopropyl-1-(3-fluoropropyl)-5-methyl-6-[(5-oxo-4,5-dihydro-1H-1,2,4-triazol-1-yl)methyl]thieno[2,3-d]pyrimidine-2,4(1H,3H)-dione], the half-maximal inhibitory concentration (IC50) stood at 120 nM.

As to `Cc1c(Cn2nc[nH]c2=O)sc2c1c(=O)n(C1CC1)c(=O)n2CCCCF` [Example 198, 3-Cyclopropyl-1-(4-fluorobutyl)-5-methyl-6-[(5-oxo-4,5-dihydro-H-1,2,4-triazol-1-yl)methyl]thieno[2,3-d]pyrimidine-2,4(1H,3H)-dione], the IC50 stood at 190 nM.
